Patent US20250320288A1, “METHOD OF TREATING VITILIGO WITH INTERFERON-GAMMA ANTIBODY” (Elixiron Immunotherapeutics (Hong Kong), priority 2022, published 2025)
“Also recorded” adds a separate entry of the source.

Experiments:
[1] = system: primary melanocytes; assay: Melanocyte cell viability after IFN-γ, chemokines, cell death inhibitors or 2A6Q, Day 2 and Day 7; type: cell-based, human; conditions: for rescue of IFN-γ induced melanocyte cell death (cell viability): melanocytes with IFN-γ, up to seven days
Procedure: To determine cell viability of melanocyte after treatment with IFN-γ, CXCL9, CXCL10, CXCL11, at Day 2, and Day 7, the cells were collected and seeded into 96-well plates. After adhesion, cells were treated with IFN-γ (0, 10, 100 ng/ml) with different compounds: 2A6Q, CXCL9, CXCL10, CXCL11, ROS scavenger (NAC), necroptosis inhibitor (NEC-1), pyroptosis inhibitor (VX-765), apoptosis inhibitor (QVD-OPH), Ferroptosis inhibitor (Liproxstaitin-1, Ferrostatin-1, DFO). Cell viability was measured using a CellTiter-Glo luminescent cell viability assay kit (Promega) according to the manufacturer's protocol. The […] of the final reaction product was measured using a luminometer (SpectraMax® iD3 Multi-Mode Microplate Reader (Molecular Devices). After calculation, the viability of control cells was 100%, and all others were normalized to control and shown as relative cell viability (%). Treatment dosage N-acetylcysteine (NAC; 0.05 mM, 1 mM), Necrostatin-1 (NEC-1; 20 μM, 2 μM), Belnacasan (VX-765; 50 μg/mL, 5 μg/mL), Quinoline-Val Asp-Difluorophenoxymethylketone (QVD-OPH; 10 μM, 2 μM), Liproxstaitin-1 (10 μM, 5 μM, 1 μM, 0.05 μM), Ferrostatin-1 (5 μM, 1 μM), Deferoxamine (DFO; 10 μM, […], 1 μM, 0.05 μM), 2A6Q (10 μg/mL), CXCL9 (10 ng/mL, 10 pg/mL), CXCL10 (10 ng/ml, 10 pg/mL), CXCL11(10 ng/mL, 10 pg/mL).

[2] = system: primary melanocytes; assay: Cell morphology assay in melanocytes; type: cell-based, human; conditions: primary melanocytes, 7 days of treatment
[3] = cited from earlier work

Clc1cccc(CN=C2Nc3ccccc3NC23CCNCC3)c1 [Liproxstatin-1]
rescue of IFN-γ induced melanocyte cell death (cell viability) [1]: can partially rescue

CC(=O)N[C@@H](CS)C(=O)O [NAC, N-acetylcysteine]
rescue of IFN-γ induced melanocyte cell death (cell viability) [1]: did not find a rescue effect; also recorded: unable to restore

CN1C(=O)C(Cc2c[nH]c3ccccc23)NC1=S (centres unmarked) [NEC-1, Necrostatin-1]
rescue of IFN-γ induced melanocyte cell death (cell viability) [1]: unable to restore

CC(C)[C@H](NC(=O)c1ccc2ccccc2n1)C(=O)N[C@@H](CC(=O)O)C(=O)COc1c(F)cccc1F [QVDOPH, Quinoline-Val Asp-Difluorophenoxymethylketone]
rescue of IFN-γ induced melanocyte cell death (cell viability) [1]: unable to restore | rescue of IFN-γ induced melanocyte cell death (cell viability) ([1]; listed as pan-caspase inhibitor): unable to rescue

CCO[C@@H]1OC(=O)C[C@@H]1NC(=O)[C@@H]1CCCN1C(=O)[C@@H](NC(=O)c1ccc(N)c(Cl)c1)C(C)(C)C [VX-765, Belnacasan]
rescue of IFN-γ induced melanocyte cell death (cell viability) [1]: unable to restore

CXCL10: IFN-γ downstream cytokine added to melanocytes
effect on cell viability of melanocytes (individual cytokine) ([1]; day 7 of treatment): not CXCL9, CXCL10, or CXCL11 significantly decreases

IFN-α
morphology change in melanocyte (loss of dendrite, ballooning of cytoplasm) [2]: not IFN-α was found to contributes to morphology change

NI-0501: another anti-IFN-γ antibody, described in U.S. Pat. No. 7,700,098 B2
Key Study Findings: mortalities ([3]; at all dose groups): There were mortalities | Key Study Findings: GI tract infection caused by Shigella sp. and Campylobacter sp. ([3]; cynomolgus monkey, in vivo): infection was confirmed | Key Study Findings: monkeys early sacrificed because of severe clinical signs ([3]; from 18 monkeys): 7 monkeys were early
